Source: ChEMBL document CHEMBL1150104, “Isolation and structure identification of an active DNA strand-scission agent, (+)-3,4-di-hydroxy-8,9-methylenedioxypterocarpan” (1995)
≈ marks a conversion by molar mass, not a printed value. Calls of active or inactive are those of the source. The rule behind the calls is not given here.

Columns and labels:
Nucleic Acid [1] = assay: Induction of DNA strand scission activity in Escherichia coli pBR322 at 0.1 ug/mL by electrophoresis; type: nucleic-acid assay
Nucleic Acid [2] = assay: Induction of DNA strand scission activity in Escherichia coli pBR322 at 25 ug/mL by electrophoresis; type: nucleic-acid assay
KB = assay: Cytotoxicity against human KB cells; type: functional; details: read-out: ED50 (the source's name)

| Activity (Nucleic Acid [1]) | Activity (Nucleic Acid [2]) | Molecule | EC50 (KB) [µg/mL] |
| --- | --- | --- | --- |
| Active | – | BLEOMYCIN SULFATE | – |
| – | Active | Oc1ccc2c(c1O)OC[C@@H]1c3cc4c(cc3O[C@H]21)OCO4 | 0.9 (≈ 3 µM) |
| – | inactive | COc1ccc2c(c1O)OC[C@@H]1c3cc4c(cc3O[C@H]21)OCO4 | 4 (≈ 12.7 µM) |
| – | inactive | Oc1ccc2c(c1)OC[C@@H]1c3cc4c(cc3O[C@H]21)OCO4 [(+)-MAACKIAIN] | 5.6 (≈ 19.7 µM) |
